Experimental data taken from patent US20200393447A1, “BIOSENSORS FOR MEASURING CELL SIGNALING IN STRESSED AND HEALTHY CELLS” (MONTANA MOLECULAR LLC, priority 2017, published 2020).

Columns and labels:
Format in all cases: cell-based
HEK293T cells [1] = assay: Multiplex Ca2+ biosensor (SEQ ID NO: 4) in cells stressed with thapsigargin, carbachol stimulation
Experimental: In order to analyze the calcium response of cells exposed to an ER-stress inducing molecule, HEK293T cells transfected with the nucleic acid construct described in FIG. 1 were exposed to thapsigargin to induce ER stress. Thapsigargin is an inhibitor of the sarcoplasmic/endoplasmic reticulum Ca^2+ ATPase that inhibits the autophagic process and induces ER stress. The calcium signaling properties of the thapsigargin-treated cells was measured as described below. HEK293T cells were transfected with SEQ ID NO: 4 as follows. 27,000 cells per well in 100 μL of EMEM media were plated onto Greiner 96-well plates coated with poly-D lysine. The cells were incubated for 24 hours at 37° C. and 5% CO2. 100 ng of plasmid DNA expressing SEQ ID NO: 4 and 10 ng of plasmid expressing human muscarinic receptor 1 were then transfected using FUGENE as follows. 100 ng of DNA expressing SEQ ID NO: 4 and 10 ng of DNA expressing human muscarinic receptor 1 were combined with 0.4 μL of FUGENE and brought to a final volume of 50 μL using OPTIMEM serum free media and incubated for 20 mins at 25° C. then added to the cells. After 16 hours the cells were treated with a final concentration of 1 μM thapsigargin for 5 hours to induce ER stress. The cells were then washed 5× with 100 μL DPBS and 150 μL of DPBS was added to the wells. The cells were imaged using a Zeiss Axiovert fluorescence microscope using standard Green Fluorescent Protein (GFP) and Red Fluorescent Protein (RFP) excitation and emission filters. Images were obtained in both the red and green channels every 2 seconds for 100 seconds. A final concentration of 50 μM carbachol was added to the wells to stimulate Gq signaling after 20 seconds, releasing intracellular Ca^2+ stores for detection by the biosensor. The images were analyzed as follows. Cells were identified as either stressed or unstressed based on their green fluorescence intensity. The Ca^2+ signaling response upon Gq stimulation was monitored in the red fluorescence channel.

HEK293T cells [2] = assay: Multiplex Ca2+ biosensor (SEQ ID NO: 4) in cells stressed by P23H rhodopsin mutant, carbachol stimulation; conditions: 50 μM, P23H rhodopsin mutant co-expressed
Experimental: In order to analyze the calcium response of cells expressing a mutant protein, HEK293T cells were transfected with both the nucleic acid construct described in FIG. 1 and a mutant rhodopsin protein (P23H). The P23H mutation in rhodopsin causes retinitis pigmentosa (Rivolta et al. 2002), an inherited form of blindness that develops gradually over the first decade of life.
The experiment in FIG. 4 was conducted the same as in FIG. 3 with the following modifications. 100 ng of a plasmid expressing the P23H rhodopsin mutation was co-transfected with the plasmid expressing SEQ ID NO: 4 and 10 ng of human muscarinic receptor 1. After 24 hours the cells were treated with 50 μM carbachol as described in Example 1 above, and the Ca^2+ signaling was monitored in the red fluorescence channel for cells identified as stressed or unstressed based on their green fluorescence intensity.

HEK293T cells [3] = assay: RT-PCR of spliced/unspliced sensor mRNA (XBP1 intron splicing) after thapsigargin
Source text: A second nucleic acid construct (SEQ ID NO: 6) was constructed and tested. This nucleic acid construct is a red fluorescent protein (RFP) with a nuclear localization sequence, placed upstream of the XBP1 intron sequence. A T2A peptide encoding sequence is placed after the RFP sequence. This is followed by a partial sequence from the endogenous XBP1 gene that encodes a region of the protein important for regulating its stability. This partial XBP1 sequence is fused to the mNeonGreen coding sequence. Upon stress activation the XBP1 intron sequence is removed, this removes a stop codon, shifts the reading frame, and allows for translation of the XBP1-mNeonGreen fusion construct. This construct was transfected into HEK293T cells, which were then treated with 1 μM thapsigargin or DMSO vehicle control to induce ER stress. Isolated mRNA from the treated cells was then analyzed for intron splicing using RT-PCR (see van Schadewijk et al., 2012).
(§1) HEK293T cells were transduced with 25 μL of the nucleic acid construct of SEQ ID NO: 6. The construct was transduced into 48,000 HEK293T cell in FluoroBrite media and the cells were incubated at 37° C. and 5% CO2 for 16 hours. A final concentration of 1 μM thapsigargin was added to the cells. For RT-PCR analysis a total of 2 μg of total RNA was isolated form 6 wells of cells grown on 96-well Greiner plates coated in poly-D-lysine. […] PCR products were then analyzed on a 2% agarose gel. […] All images were obtained using a Zeiss Axiovert fluorescence microscope with standard RFP and GFP excitation and emission filter sets. […] The media was supplemented with 25 mM HEPES and the cells were incubated in the BioTek Synergy MX plate reader at 37° C. for 24 hours. Green fluorescence was monitored using excitation and emission wavelengths of 485 nm and 528 nm respectively, while red fluorescence was monitored using 558 nm/603 nm excitation and emission wavelengths. […] The percentage of change in green, red, and green/red ratio fluorescence was then calculated.

HEK293T cells [4] = assay: Two-color stress sensor fluorescence monitored over 24 hours after thapsigargin; conditions: 1 μM vs DMSO, 24 hours monitoring
Experimental: as §1, with “poly-D-lysine. RNA was isolated using the Zymo Quick RNA microprep kit according to the manufacturer's instructions. mRNA was converted to cDNA by reverse transcription using M-MLV reverse transcriptase from Promega and an oligo dT primer according to the manufacturer's instructions.” for “poly-D-lysine.”

[5] = system: iPSC-derived peripheral neurons; assay: Two-color stress sensor (SEQ ID NO: 6): percentage of ER-stressed cells after chemotherapeutic treatment; conditions: 24 hours of incubation
Source text: The two-color biosensor described in Example 5 above (RFP-GFP stress sensor; SEQ ID NO: 6) may be used to calculate the percent of cells undergoing ER stress, and may be used as measurement technique to detect side effects induced by chemotherapeutics. In order to determine the percentage of cells in population experiencing ER-stress following exposure to a ER-stress-inducing compound, iPSC-derived peripheral neurons were transduced with the two-color stress sensor described in Example 5 above. The cells were treated with the chemotherapeutic vincristine at concentrations of 0.0001 μM, 0.01 μM, and 0.1 μM. Measurement of the red fluorescence was used to identify transduced cells and measurement of green fluorescence identifies stressed cells. Stressed and unstressed cells were counted to quantify the percentage of stressed cells in the population.
Peri.4U peripheral neurons from Ncardia were plated onto 96-well plates according to the manufacturer's instructions. Cells were incubated for 2 days at 37° C. and 5% CO2 and the media was changed every 24 hours, using Ncardia neuro supplement media. […] Those cells that expressed both the constitutively expressed red nuclear marker and the green, stress induced, nuclear fluorescence were considered stressed, while those only expressing the red marker were considered unstressed. […]

For `C[N+](C)(C)CCOC(N)=O` [carbachol], the “Ca2+ response in ER-stressed cells compared to surrounding healthy cells” value (HEK293T cells [1]; 50 μM, stressed (mNeonGreen) vs unstressed cell) was “blunted, smaller amplitude response”, the “red fluorescence of Ca2+ biosensor after treatment” value (HEK293T cells [1]; 50 μM, thapsigargin-treated cells) was “visible increase in red fluorescence” and the “release of intracellular Ca2+ stores, stressed vs unstressed cells” value (HEK293T cells [2]) was “blunted in the stressed cells compared to the unstressed cells”.

For `C/C=C(/C)C(=O)O[C@H]1C(C)=C2[C@H]([C@@H]1OC(=O)CCCCCCC)[C@@](C)(OC(C)=O)C[C@H](OC(=O)CCC)[C@@]1(O)[C@H]2OC(=O)[C@@]1(C)O` [thapsigargin], the “persistence of spliced sensor band (recovery from stress)” value (HEK293T cells [3]; 1 μM) was “disappears after 24 hours”, the “time of peak intensity of spliced sensor band post-treatment” value (HEK293T cells [3]; 1 μM) was 2.5 h and the “appearance of spliced version of the sensor (lower band)” value (HEK293T cells [3]; 1 μM vs DMSO, 30 minutes, 2.5, 6 and 24 hours) was “appears only in the thapsigargin treated cells”. For the same compound, the “mNeonGreen expression (ER stress marker)” value (HEK293T cells [1]; 1 μM for 5 hours) was “the mNeonGreen protein due to the ER stress induced by the thapsigargin treatment” and the “green stress induced fluorescence over time” value (HEK293T cells [4]) was “appears rapidly, then disappears by 24 hours”.

`CC[C@]1(O)C[C@H]2CN(CCc3c([nH]c4ccccc34)[C@@](C(=O)OC)(c3cc4c(cc3OC)N(C=O)[C@H]3[C@@](O)(C(=O)OC)[C@H](OC(C)=O)[C@]5(CC)C=CCN6CC[C@]43[C@@H]65)C2)C1` [vincristine] was tested, and the “percentage of stressed cells compared to control treatment” value ([5]; 0.01 μM, p<0.00011) was “statistically significant percentages of stressed cells” and the “percentage of stressed cells compared to control treatment” value ([5]; 0.1 μM, p<2.3e−05) was “statistically significant percentages of stressed cells”.
